According to article PMC4310329, “The length of a lantibiotic hinge region has profound influence on antimicrobial activity and host specificity” (Frontiers in Microbiology, 2015):

Columns and labels:
[1] = test system: Bacillus cereus (L′29) 16; assay: MIC in liquid culture; type: cell-based; settings: MIC value of nisin divided by that of the analog
Procedure: (§1) L. lactis strains were cultured in M17 broth supplemented with 0.5% (w/v) glucose (GM17) or GM17 agar for genetic manipulation or in minimal expression medium (MEM) for protein expression at 30°C (Rink et al., [2005]). E. faecalis, S. aureus, S. pneumonia, and L. monocytogenes were grown in GM17 at 37°C or GM17 agar at different temperatures for agar diffusion assay. M. luteus was grown in Luria-Bertani broth shaken (200 rpm) at 30°C or LB agar at 20°C for agar diffusion assay. Bacillus strains were cultured in Brain Heart Infusion (BHI) shaken (200 rpm) or BHI agar at different temperatures for agar diffusion assay.
(§2) The indicator strains were cultured until OD (600 nm) reached 0.5. Before MIC value test, the culture was diluted 1000 times to make the concentration of cells around 5 × 10^5 per milliliter. The test was performed using a temperature controlled plate reader [Tecan200 (Tecan Group AG)] and 96 well plate (Greiner Bio-one). 180 μl indicator strain culture mixed with 20 μl hinge region analogs with final concentration from 0.031 μg/ml–32 μg/ml was incubated at 30°C or 37°C for 18 h. OD (600 nm) was checked every 30 min. For aerobic strains, 2 min of shaking was performed before every check. The concentration of peptide without observed growth of indicator strains was considered as the MIC value.

[2] = test system: Bacillus cereus 4147; assay: MIC in liquid culture; type: cell-based; settings: MIC value of nisin divided by that of the analog
Procedure: as §1, §2

[3] = test system: Bacillus cereus 4153; assay: MIC in liquid culture; type: cell-based; settings: MIC value of nisin divided by that of the analog
Procedure: as §1, §2

[4] = test system: Lactococcus lactis MG1363; assay: MIC in liquid culture; type: cell-based; settings: MIC value of nisin divided by that of the analog
Procedure: as §1, §2

[5] = test system: Listeria monocytogenes; assay: MIC in liquid culture; type: cell-based; settings: MIC value of nisin divided by that of the analog
Procedure: as §1, §2

[6] = test system: Micrococcus luteus; assay: MIC in liquid culture; type: cell-based; settings: MIC value of nisin divided by that of the analog
Procedure: as §1, §2

[7] = test system: Staphylococcus aureus; assay: MIC in liquid culture; type: cell-based; settings: MIC value of nisin divided by that of the analog
Procedure: as §1, §2

[8] = test system: Streptococcus pneumoniae R6; assay: MIC in liquid culture; type: cell-based; settings: MIC value of nisin divided by that of the analog
Procedure: as §1, §2

[9] = test system: L. lactis MG1363; assay: Agar well diffusion assay; type: cell-based, Lactococcus lactis; settings: relative to wt
Procedure: as §1
(§3) For the agar well diffusion assay, the same cultures as in the MIC value test were used and diluted 200 times with solid media. Identical sizes of wells (7.5 mm diameter) were made and 2 μg of hinge region analogs dissolved in 20 μl 0.05% acetic acid were added. The plates were incubated at different temperatures for at least 1 day until apparent halos appeared. For activity test at low temperature, the indicators were diluted in the same way but poured into smaller plates (52 mm diameter). The plates were incubated at 4°C overnight before the peptides were added. B. sporothermodurans IC4 and B. cereus 4153 were first incubated with the peptides at 4°C for 2 weeks then moved to 30°C and incubated overnight. The diameters of the halos were measured.
(§4) The antimicrobial activity of the hinge region analogs in solid media were tested by an agar well diffusion assay. The diameters of the halos were measured and the residual activity of the analogs were estimated according to the formula of the relationship between the concentration of nisin and the sizes of halos. We made use of the fact that the size of the halo is directly related to the log of nisin concentration. Of course this is an estimate of activity of the variants because any changes in diffusion of the variant bacteriocin or growth rates of indicator bacteria during the assay could also affect the size of the halo. (Table 5 and Supplementary Figure 1). The plates were shown in supplementary data (Supplementary Figures 2–8). […] And against L. lactis at 20°C, the inhibition zone was larger than nisin. […] The M. luteus grows quite fast at room temperature and only the +2 variant retained 55% of the activity of nisin. […]
(§5) To evaluate the activity of nisin on the agar plate, an agar well diffusion assay with gradient of nisin against Lactococcus lactis ( with two plasmids) was performed ( Supplementary Figur e 1 A). The diameter of the halos were measured (Supplementary Figure 1B). […]
(§6) the concentration of nisin is in liner relationship with diameter of the halos ( Supplementary Fi g u re 1C). According to the formula (1) , the relative activity of the peptides compared to nisin can be calculated b y the formula ( 2) .
(§7) Supplementary Figure 1. Relationship between concentration of nisin and diameter of the halos. (A) Agar well diffusion assay. Gradient concentration of nisin were made and dissolved in 30µl 0.05% acetic acid. Lactococcus lactis ( with two plasmids) was cultured overnight and diluted 250 times with GM17 agar before added to the plate. The final concentration of the cells was about 2×10^6 cells/milliliter. The plate was incubated for 1 da y. Concentrations of nisin were labeled. (B) log10 of the concentrati ons and diameters of the halo. (C) A linear curve w as made betw een t he diameters of the halo and log10s of the concentration of nisin.
(§8) (1 picture or pasted object on this page, not shown here)
(§9) Last Name a uthor 1 et al. Running Title
(§10) C = concentration of nisin d° = diameter of the halo of wild t ype […]

[10] = test system: L. monocytogenes; assay: Agar well diffusion assay; type: cell-based, Listeria monocytogenes; settings: estimated from halo diameter by nisin standard curve, relative to wt
Procedure: as §1, §3, §4, §5, §6, §7, §8, §9, §10

[11] = test system: E. faecalis VE14089; assay: Agar well diffusion assay; type: cell-based, Enterococcus faecalis; settings: estimated from halo diameter by nisin standard curve, relative to wt
Procedure: as §1, §3, §4, §5, §6, §7, §8, §9, §10

[12] = test system: M. luteus; assay: Agar well diffusion assay; type: cell-based, Micrococcus luteus; settings: 20 °C; estimated from halo diameter by nisin standard curve, relative to wt
Procedure: as §1, §3, §4, §5, §6
as §7, with “nisin. […]” for “nisin.”

[13] = test system: S. aureus; assay: Agar well diffusion assay; type: cell-based, Staphylococcus aureus; settings: 20 °C; estimated from halo diameter by nisin standard curve, relative to wt
Procedure: as §1, §3, §4, §5, §6
as §7, with “nisin. […]” for “nisin.”

[14] = test system: Bacillus sporothermodurans IC4; assay: MIC in liquid culture; type: cell-based; settings: MIC value of nisin divided by that of the analog
Procedure: as §1, §2

[15] = test system: Enterococcus faecalis VE14089; assay: MIC in liquid culture; type: cell-based; settings: MIC value of nisin divided by that of the analog
Procedure: as §1, §2

[16] = test system: B. sporothermodurans IC4; assay: Agar well diffusion assay; type: cell-based, Bacillus sporothermodurans; settings: 30 °C; estimated from halo diameter by nisin standard curve, relative to wt
Procedure: as §1
as §3, with “B. sporothermodurans IC4 and B. cereus 4153 were first incubated with the peptides at 4°C for 2 weeks then moved to 30°C and incubated overnight.” left out
The antimicrobial activity of the hinge region analogs in solid media were tested by an agar well diffusion assay. The diameters of the halos were measured and the residual activity of the analogs were estimated according to the formula of the relationship between the concentration of nisin and the sizes of halos. […]
as §5
the concentration of nisin is in liner relationship with diameter of the halos ( Supplementary Fi g u re 1C). According to the formula (1) , the relative activity of the peptides compared to nisin can be calculated b y the formula ( 2) . […]

[17] = 20 °C, estimated from halo diameter by nisin standard curve (halo diameter vs log of nisin concentration)
[18] = 30 °C, estimated from halo diameter by nisin standard curve

| Compound | Residual activity of variants compared to nisin [1] [%] | Residual activity of variants compared to nisin [2] [%] | Residual activity of variants compared to nisin [3] [%] | Residual activity of variants compared to nisin [4] [%] | Residual activity of variants compared to nisin [5] [%] | Residual activity of variants compared to nisin [6] [%] | Residual activity of variants compared to nisin [7] [%] | Residual activity of variants compared to nisin [8] [%] | Residual activity [9, 17] [%] | Residual activity ([10]; 20 °C) [%] | Residual activity ([11]; 20 °C) [%] | Residual activity ([11]; 37 °C) [%] | Residual activity [12] [%] | Residual activity [13] [%] | Residual activity of variants compared to nisin [14] [%] | Residual activity of variants compared to nisin [15] [%] | Residual activity [9, 18] [%] | Residual activity ([10]; 30 °C) [%] | Residual activity ([11]; 30 °C) [%] | Residual activity [16] [%] |
| --- | --- | --- | --- | --- | --- | --- | --- | --- | --- | --- | --- | --- | --- | --- | --- | --- | --- | --- | --- | --- |
| C=C(NC(=O)[C@@H](NC(=O)[C@H](Cc1c[nH]cn1)NC(=O)[C@@H](NC(=O)[C@H](CO)NC(=O)[C@@H]1CS[C@@H](C)[C@H]2NC(=O)[C@H](C)NC(=O)[C@H](NC(=O)[C@H](CCCCN)NC(=O)[C@H](CCSC)NC(=O)[C@H](CC(C)C)NC(=O)[C@H](CC(N)=O)NC(=O)[C@@H]3CS[C@@H](C)[C@@H](NC(=O)[C@H](CCCCN)NC(=O)[C@@H]4CS[C@@H](C)[C@@H](NC(=O)[C@@H]5CSC[C@@H](NC(=O)/C(=C/C)NC(=O)[C@@H](N)[C@@H](C)CC)C(=O)N[C@@H]([C@@H](C)CC)C(=O)NC(=C)C(=O)N[C@@H](CC(C)C)C(=O)N5)C(=O)N5CCC[C@H]5C(=O)NCC(=O)N4)C(=O)NCC(=O)N[C@@H](C)C(=O)N[C@@H](CC(C)C)C(=O)N[C@@H](CCSC)C(=O)NCC(=O)N3)[C@H](C)SC[C@H](NC2=O)C(=O)N[C@@H](Cc2c[nH]cn2)C(=O)N1)[C@@H](C)CC)C(C)C)C(=O)N[C@@H](CCCCN)C(=O)O [+1] | 25 | 25 | 25 | 25 | 25 | 25 | 6 | 17 | 122 | 72 | 72 | 82 | 9 | 27 |  |  |  |  |  |  |
| C=C(NC(=O)[C@@H](NC(=O)[C@H](Cc1c[nH]cn1)NC(=O)[C@@H](NC(=O)[C@H](CO)NC(=O)[C@@H]1CS[C@@H](C)[C@H]2NC(=O)[C@H](C)NC(=O)[C@H](NC(=O)[C@H](CCCCN)NC(=O)[C@H](CCSC)NC(=O)[C@H](CC(C)C)NC(=O)[C@@H](NC(=O)[C@@H](NC(=O)[C@H](CC(N)=O)NC(=O)[C@@H]3CS[C@@H](C)[C@@H](NC(=O)[C@H](CCCCN)NC(=O)[C@@H]4CS[C@@H](C)[C@@H](NC(=O)[C@@H]5CSC[C@@H](NC(=O)/C(=C/C)NC(=O)[C@@H](N)[C@@H](C)CC)C(=O)N[C@@H]([C@@H](C)CC)C(=O)NC(=C)C(=O)N[C@@H](CC(C)C)C(=O)N5)C(=O)N5CCC[C@H]5C(=O)NCC(=O)N4)C(=O)NCC(=O)N[C@@H](C)C(=O)N[C@@H](CC(C)C)C(=O)N[C@@H](CCSC)C(=O)NCC(=O)N3)[C@@H](C)CC)C(C)C)[C@H](C)SC[C@H](NC2=O)C(=O)N[C@@H](Cc2c[nH]cn2)C(=O)N1)[C@@H](C)CC)C(C)C)C(=O)N[C@@H](CCCCN)C(=O)O [+3] | 13 | 25 | 13 | 13 | <25 | 25 | <3 | 13 | 5 | 3 | 6 | 14 | 7 | 0 | 17 | <21 | 3 | 3 | 9 | 10 |
| C=C(NC(=O)[C@@H](NC(=O)[C@H](Cc1c[nH]cn1)NC(=O)[C@@H](NC(=O)[C@H](CO)NC(=O)[C@@H]1CS[C@@H](C)[C@H]2NC(=O)[C@H](C)NC(=O)[C@H](NC(=O)[C@H](CC(N)=O)NC(=O)[C@@H]3CS[C@@H](C)[C@@H](NC(=O)[C@H](CCCCN)NC(=O)[C@@H]4CS[C@@H](C)[C@@H](NC(=O)[C@@H]5CSC[C@@H](NC(=O)/C(=C/C)NC(=O)[C@@H](N)[C@@H](C)CC)C(=O)N[C@@H]([C@@H](C)CC)C(=O)NC(=C)C(=O)N[C@@H](CC(C)C)C(=O)N5)C(=O)N5CCC[C@H]5C(=O)NCC(=O)N4)C(=O)NCC(=O)N[C@@H](C)C(=O)N[C@@H](CC(C)C)C(=O)N[C@@H](CCSC)C(=O)NCC(=O)N3)[C@H](C)SC[C@H](NC2=O)C(=O)N[C@@H](Cc2c[nH]cn2)C(=O)N1)[C@@H](C)CC)C(C)C)C(=O)N[C@@H](CCCCN)C(=O)O [−2] | <13 | <13 | <13 | 6 | <25 | <25 | <3 | 13 | 120 | 82 | 36 | 76 | 0 | 16 | 13 | <6 | 91 | 76 | 77 |  |
